Assay results: ChEMBL document CHEMBL1135203, “Benzodiazepine inhibitors of the MMPs and TACE” (Bioorg Med Chem Lett, 2002)
Active and inactive are the calls of the source. The rule behind the calls is not given here.

Key:
THP-1 = assay: Compound was tested for its ability to inhibit TNF-alpha in a cellular assay using THP-1 cells at 3 uM; type: functional; settings: Homo sapiens
[1] = molecular target: Disintegrin and metalloproteinase domain-containing protein 17 (Homo sapiens, UniProt P78536); assay: Concentration required in vitro to inhibit TNF-alpha converting enzyme (TACE)
Chain of Disintegrin and metalloproteinase domain-containing protein 17 (P78536 whole entry, the tested form may be a part): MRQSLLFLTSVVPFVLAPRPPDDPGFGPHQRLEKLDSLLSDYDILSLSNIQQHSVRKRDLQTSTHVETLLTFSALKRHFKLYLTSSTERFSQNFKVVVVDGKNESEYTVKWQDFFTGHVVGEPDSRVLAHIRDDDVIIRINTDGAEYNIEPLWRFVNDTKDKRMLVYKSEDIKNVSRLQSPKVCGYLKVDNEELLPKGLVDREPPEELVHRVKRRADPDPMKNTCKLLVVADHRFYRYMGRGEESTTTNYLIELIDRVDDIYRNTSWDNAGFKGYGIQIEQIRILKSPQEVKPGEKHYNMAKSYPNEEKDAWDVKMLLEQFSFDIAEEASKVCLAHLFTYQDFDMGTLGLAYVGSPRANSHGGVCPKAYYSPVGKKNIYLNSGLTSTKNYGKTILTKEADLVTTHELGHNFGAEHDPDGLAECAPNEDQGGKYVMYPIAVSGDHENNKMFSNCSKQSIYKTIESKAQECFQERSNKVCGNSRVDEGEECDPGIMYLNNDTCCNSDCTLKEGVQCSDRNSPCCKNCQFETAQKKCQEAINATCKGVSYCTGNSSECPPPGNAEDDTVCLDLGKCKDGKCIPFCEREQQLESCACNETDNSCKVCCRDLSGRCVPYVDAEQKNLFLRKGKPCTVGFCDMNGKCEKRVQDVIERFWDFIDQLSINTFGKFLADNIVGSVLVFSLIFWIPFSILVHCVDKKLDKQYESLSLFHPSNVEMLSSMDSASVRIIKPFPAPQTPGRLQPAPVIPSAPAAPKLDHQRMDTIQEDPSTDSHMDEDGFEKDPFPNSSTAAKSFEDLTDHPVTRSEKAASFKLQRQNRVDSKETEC

Rattus norvegicus [2] = species: Rattus norvegicus; assay: Dialysis activity is detected at a dose of 50 mpk; IA denotes inactive; type: functional, organism-based
Interstitial collagenase = molecular target: T1, Interstitial collagenase (Homo sapiens, UniProt P03956); assay: Concentration required in vitro to inhibit Matrix metalloprotease-1
T1 sequence (P03956 whole entry): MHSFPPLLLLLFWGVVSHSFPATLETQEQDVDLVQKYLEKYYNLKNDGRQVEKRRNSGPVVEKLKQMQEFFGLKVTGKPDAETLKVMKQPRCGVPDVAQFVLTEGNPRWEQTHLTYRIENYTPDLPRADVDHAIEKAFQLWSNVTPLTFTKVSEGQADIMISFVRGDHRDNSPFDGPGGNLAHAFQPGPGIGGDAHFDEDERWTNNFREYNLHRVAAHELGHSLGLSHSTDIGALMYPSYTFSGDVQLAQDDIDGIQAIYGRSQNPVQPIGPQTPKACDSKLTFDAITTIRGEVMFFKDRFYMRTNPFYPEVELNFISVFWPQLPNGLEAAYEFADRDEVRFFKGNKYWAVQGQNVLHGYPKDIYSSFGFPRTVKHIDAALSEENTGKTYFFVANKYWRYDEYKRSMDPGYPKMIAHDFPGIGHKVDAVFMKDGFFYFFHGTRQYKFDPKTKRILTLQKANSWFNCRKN

Collagenase 3 = Collagenase 3 (Homo sapiens, UniProt P45452); assay: Concentration required in vitro to inhibit Matrix metalloprotease-13
Bos taurus [3] = species: Bos taurus; assay: Inhibition of cartilage degradation by the compound was detected using bovine cartilage explant model at 1 uM; type: functional, Cartilage tissue
Rattus norvegicus [4] = assay: Dialysis activity is detected at a dose of 50 mpk after 2 hr of ip administration; type: functional; set-up: unit not given here
Bos taurus [5] = species: Bos taurus; assay: Compound was tested for inhibition of cartilage degradation using bovine cartilage explant model; type: functional, Cartilage tissue
Rattus norvegicus [6] = species: Rattus norvegicus; assay: Dialysis activity is detected at a dose of 50 mpk; type: functional
[7] = molecular target: Matrix metalloproteinase-9 (Homo sapiens, UniProt P14780); assay: Concentration required in vitro to inhibit Matrix metalloprotease-9
Chain of Matrix metalloproteinase-9 (P14780 whole entry): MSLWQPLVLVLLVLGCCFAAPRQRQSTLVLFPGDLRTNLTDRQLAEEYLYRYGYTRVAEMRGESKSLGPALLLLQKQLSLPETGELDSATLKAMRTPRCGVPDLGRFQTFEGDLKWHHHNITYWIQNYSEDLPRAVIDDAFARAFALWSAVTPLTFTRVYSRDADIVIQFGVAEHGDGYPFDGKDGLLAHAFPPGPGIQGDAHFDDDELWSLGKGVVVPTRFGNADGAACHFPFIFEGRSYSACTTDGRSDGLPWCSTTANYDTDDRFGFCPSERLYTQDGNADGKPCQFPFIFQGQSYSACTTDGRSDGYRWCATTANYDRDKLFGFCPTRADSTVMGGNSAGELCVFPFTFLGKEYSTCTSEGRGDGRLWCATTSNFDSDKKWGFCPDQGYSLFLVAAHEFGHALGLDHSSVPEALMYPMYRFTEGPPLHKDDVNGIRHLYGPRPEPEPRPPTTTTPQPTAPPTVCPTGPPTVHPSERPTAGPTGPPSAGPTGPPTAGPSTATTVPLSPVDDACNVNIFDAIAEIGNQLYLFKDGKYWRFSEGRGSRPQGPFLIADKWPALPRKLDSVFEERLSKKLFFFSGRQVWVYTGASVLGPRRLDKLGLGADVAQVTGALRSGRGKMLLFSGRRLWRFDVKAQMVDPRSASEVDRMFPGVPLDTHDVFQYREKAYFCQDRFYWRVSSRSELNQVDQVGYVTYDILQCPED

Rattus norvegicus [8] = assay: Dialysis activity is detected at a dose of 50 mpk after 1 hr of po administration; type: functional; set-up: unit not given here
Rattus norvegicus [9] = assay: Dialysis activity is detected at a dose of 50 mpk after 1 hr of ip administration; type: functional

| Structure (SMILES) | IC50 [1] | IC50 (Interstitial collagenase) | IC50 (Collagenase 3) | IC50 [7] | further results |
| --- | --- | --- | --- | --- | --- |
| CC#CCOc1ccc(S(=O)(=O)N2Cc3ccccc3N(C(C)=O)CC2C(=O)NO)cc1 (stereo unspecified) |  |  |  |  | inhibition at 3 µM (THP-1): 60% |
| COCC(=O)N1CC(C(=O)NO)N(S(=O)(=O)c2ccc(Oc3ccc(Cl)cc3)cc2)Cc2ccccc21 (stereo unspecified) | 157 nM | 61 nM |  |  | IA (Rattus norvegicus [2]): inactive |
| O=C(NO)C1CN(C(=O)c2ccccc2)c2ccccc2CN1S(=O)(=O)c1ccc(Oc2ccc(Cl)cc2)cc1 (stereo unspecified) | 528 nM | 59 nM |  |  |  |
| CC#CCOc1ccc(S(=O)(=O)N2Cc3ccccc3N(C(=O)c3ccccc3)CC2C(=O)NO)cc1 (stereo unspecified) |  |  | 9.5 nM |  | inhibition at 3 µM (THP-1): 25% |
| COc1ccc(S(=O)(=O)N2Cc3ccccc3N(C(=O)c3cccs3)CC2C(=O)NO)cc1 (stereo unspecified) |  | 20 nM | 1 nM |  | Activity (Bos taurus [3]): 1.2; Activity (Rattus norvegicus [4]): 1.1 |
| COc1ccc(S(=O)(=O)N(Cc2cccnc2)[C@@H](C(=O)NO)C(C)C)cc1.Cl [CGS-27023A] |  |  |  |  | Inhibition (Bos taurus [5]): 63%; Activity (Rattus norvegicus [6]): 1; Activity (Bos taurus [3]): 1 |
| CC#CCOc1ccc(S(=O)(=O)N2Cc3ccccc3N(S(C)(=O)=O)CC2C(=O)NO)cc1 (stereo unspecified) | 20 nM | 260 nM | 34.6 nM | 95.5 nM | inhibition at 3 µM (THP-1): 44% |
| CC#CCOc1ccc(S(=O)(=O)N2Cc3ccccc3N(C(=O)C3CC3)CC2C(=O)NO)cc1 (stereo unspecified) | 10 nM | 841 nM | 29 nM | 33 nM | inhibition at 3 µM (THP-1): 59% |
| COCC(=O)N1CC(C(=O)NO)N(S(=O)(=O)c2ccc(OC)cc2)Cc2ccccc21 (stereo unspecified) |  |  | 2 nM | 2 nM | Activity (Rattus norvegicus [8]): 1; Activity (Bos taurus [3]): 2.5 |
| CCOc1ccc(C(=O)N2CC(C(=O)NO)N(S(=O)(=O)c3ccc(OC)cc3)Cc3ccccc32)cc1 (stereo unspecified) |  | 24 nM | 2 nM | 2 nM |  |
| COc1ccc(S(=O)(=O)N2Cc3ccccc3N(C(=O)C3CC3)CC2C(=O)NO)cc1 (stereo unspecified) |  |  |  |  | Activity (Rattus norvegicus [8]): 0.49; Activity (Rattus norvegicus [9]): 0.8 |
| COc1ccc(S(=O)(=O)N2Cc3ccccc3N(S(C)(=O)=O)CC2C(=O)NO)cc1 (stereo unspecified) |  |  |  | 8 nM |  |
| COc1ccc(S(=O)(=O)N2Cc3ccccc3N(C(=O)C3CCCCC3)CC2C(=O)NO)cc1 (stereo unspecified) |  |  |  | 13 nM | Activity (Rattus norvegicus [8]): 0.47 |
| COc1ccc(S(=O)(=O)N2Cc3ccccc3N(C(=O)c3ccccc3)CC2C(=O)NO)cc1 (stereo unspecified) |  |  |  | 0.6 nM | Inhibition (Bos taurus [5]): 46.3%; Activity (Bos taurus [3]): 0.73; Activity (Rattus norvegicus [4]): 1.2 |
| COc1ccc(S(=O)(=O)N2Cc3ccccc3N(C(=O)c3cc(F)ccc3C)CC2C(=O)NO)cc1 (stereo unspecified) |  |  | 2 nM | 4 nM |  |
| COc1ccc(S(=O)(=O)N2Cc3ccccc3N(C(C)=O)CC2C(=O)NO)cc1 (stereo unspecified) |  | 18 nM |  |  | Activity (Rattus norvegicus [8]): 0.9; Activity (Rattus norvegicus [4]): 1.7 |
| COCC(=O)N1CC(C(=O)NO)N(S(=O)(=O)c2ccc(Oc3ccncc3)cc2)Cc2ccccc21 (stereo unspecified) | 157 nM | 763 nM | 2 nM | 2 nM | Activity (Rattus norvegicus [8]): 0.32 |
| COc1ccc(S(=O)(=O)N2Cc3ccccc3N(C(=O)CCc3ccccc3)CC2C(=O)NO)cc1 (stereo unspecified) |  |  |  |  | Activity (Rattus norvegicus [4]): 0.22 |
| O=C(NO)C1CN(C(=O)c2cccs2)c2ccccc2CN1S(=O)(=O)c1ccc(Oc2ccc(Cl)cc2)cc1 (stereo unspecified) | 254 nM | 35 nM | 4 nM | 2 nM |  |
